{"source": "ChEMBL document CHEMBL3046429", "about": "“Synthesis, molecular modeling study, preliminary antibacterial, and antitumor evaluation of N-substituted naphthalimides and their structural analogues” (2013)", "assay_type_in_all_cases": "functional", "key": {"ACHN": {"tested_on": "ACHN", "assay": "Growth inhibition of Homo sapiens (human) ACHN cells at 10 uM after 48 hr by coulter counter analysis", "details": "read-out: GI"}, "OVCAR-5": {"tested_on": "OVCAR-5", "assay": "Growth inhibition of Homo sapiens (human) OVCAR5 cells at 10 uM after 48 hr by coulter counter analysis", "details": "OVCAR-5, 48 h, read-out: GI"}, "K562": {"tested_on": "K562", "assay": "Growth inhibition of Homo sapiens (human) K562 cells at 10 uM after 48 hr by coulter counter analysis", "details": "K562, 48 h, read-out: GI"}, "SNB-19": {"tested_on": "SNB-19", "assay": "Growth inhibition of Homo sapiens (human) SNB19 cells at 10 uM after 48 hr by coulter counter analysis", "details": "SNB-19, 48 h, read-out: GI"}, "NCI-H522": {"tested_on": "NCI-H522", "assay": "Growth inhibition of Homo sapiens (human) NCI-H522 cells at 10 uM after 48 hr by coulter counter analysis", "details": "NCI-H522, 48 h, read-out: GI"}, "NCI-H23": {"tested_on": "NCI-H23", "assay": "Growth inhibition of Homo sapiens (human) NCI-H23 cells at 10 uM after 48 hr by coulter counter analysis", "details": "NCI-H23, 48 h, read-out: GI"}, "HCT-15": {"tested_on": "HCT-15", "assay": "Growth inhibition of Homo sapiens (human) HCT15 cells at 10 uM after 48 hr by coulter counter analysis", "details": "HCT-15, 48 h, read-out: GI"}, "IGROV-1": {"tested_on": "IGROV-1", "assay": "Growth inhibition of Homo sapiens (human) IGROV1 cells at 10 uM after 48 hr by coulter counter analysis", "details": "IGROV-1, 48 h, read-out: GI"}, "SF-539": {"tested_on": "SF-539", "assay": "Growth inhibition of Homo sapiens (human) SF539 cells at 10 uM after 48 hr by coulter counter analysis", "details": "SF-539, 48 h, read-out: GI"}, "Staphylococcus aureus": {"tested_on": "Staphylococcus aureus", "assay": "Antibacterial activity against Staphylococcus aureus assessed as growth inhibition after 24 hr by two fold serial dilution method"}, "UACC-62": {"tested_on": "UACC-62", "assay": "Growth inhibition of Homo sapiens (human) UACC62 cells at 10 uM after 48 hr by coulter counter analysis", "details": "UACC-62, 48 h, read-out: GI"}, "RPMI-8226": {"tested_on": "RPMI-8226", "assay": "Growth inhibition of Homo sapiens (human) RPMI8226 cells at 10 uM after 48 hr by coulter counter analysis", "details": "RPMI-8226, 48 h, read-out: GI"}, "Malme-3M": {"tested_on": "Malme-3M", "assay": "Growth inhibition of Homo sapiens (human) MALME-3M cells at 10 uM after 48 hr by coulter counter analysis", "details": "read-out: GI"}, "HT-29": {"tested_on": "HT-29", "assay": "Growth inhibition of Homo sapiens (human) HT-29 cells at 10 uM after 48 hr by coulter counter analysis", "details": "HT-29, 48 h, read-out: GI"}, "SK-MEL-5": {"tested_on": "SK-MEL-5", "assay": "Growth inhibition of Homo sapiens (human) SK-MEL-5 cells at 10 uM after 48 hr by coulter counter analysis", "details": "SK-MEL-5, 48 h, read-out: GI"}, "T47D": {"tested_on": "T47D", "assay": "Growth inhibition of Homo sapiens (human) T47D cells at 10 uM after 48 hr by coulter counter analysis", "details": "read-out: GI"}, "SN12C": {"tested_on": "SN12C", "assay": "Growth inhibition of Homo sapiens (human) SN12C cells at 10 uM after 48 hr by coulter counter analysis", "details": "read-out: GI"}, "SK-OV-3": {"tested_on": "SK-OV-3", "assay": "Growth inhibition of Homo sapiens (human) SKOV3 cells at 10 uM after 48 hr by coulter counter analysis", "details": "SK-OV-3, 48 h, read-out: GI"}, "HL-60(TB)": {"tested_on": "HL-60(TB)", "assay": "Growth inhibition of Homo sapiens (human) HL-60(TB) cells at 10 uM after 48 hr by coulter counter analysis", "details": "HL-60, 48 h, read-out: GI"}, "M14": {"tested_on": "M14", "assay": "Growth inhibition of Homo sapiens (human) M14 cells at 10 uM after 48 hr by coulter counter analysis", "details": "M14, 48 h, read-out: GI"}, "UO-31": {"tested_on": "UO-31", "assay": "Growth inhibition of Homo sapiens (human) UO31 cells at 10 uM after 48 hr by coulter counter analysis", "details": "UO-31, 48 h, read-out: GI"}, "786-0": {"tested_on": "786-0", "assay": "Growth inhibition of Homo sapiens (human) 786-0 cells at 10 uM after 48 hr by coulter counter analysis", "details": "786-0, 48 h, read-out: GI"}, "MCF7": {"tested_on": "MCF7", "assay": "Growth inhibition of Homo sapiens (human) MCF7 cells at 10 uM after 48 hr by coulter counter analysis", "details": "MCF7, 48 h, read-out: GI"}, "SK-MEL-2": {"tested_on": "SK-MEL-2", "assay": "Growth inhibition of Homo sapiens (human) SK-MEL-2 cells at 10 uM after 48 hr by coulter counter analysis", "details": "SK-MEL-2, 48 h, read-out: GI"}, "MDA-MB-231": {"tested_on": "MDA-MB-231", "assay": "Growth inhibition of Homo sapiens (human) MDA-MB-231/ATCC cells at 10 uM after 48 hr by coulter counter analysis", "details": "MDA-MB-231, 48 h, read-out: GI"}, "MOLT-4": {"tested_on": "MOLT-4", "assay": "Growth inhibition of Homo sapiens (human) MOLT4 cells at 10 uM after 48 hr by coulter counter analysis", "details": "MOLT-4, 48 h, read-out: GI"}, "BT-549": {"tested_on": "BT-549", "assay": "Growth inhibition of Homo sapiens (human) BT549 cells at 10 uM after 48 hr by coulter counter analysis", "details": "BT-549, 48 h, read-out: GI"}, "HOP-92": {"tested_on": "HOP-92", "assay": "Growth inhibition of Homo sapiens (human) HOP92 cells at 10 uM after 48 hr by coulter counter analysis", "details": "HOP-92, 48 h, read-out: GI"}, "NCI-H460": {"tested_on": "NCI-H460", "assay": "Growth inhibition of Homo sapiens (human) NCI-H460 cells at 10 uM after 48 hr by coulter counter analysis", "details": "NCI-H460, 48 h, read-out: GI"}, "CCRF-CEM": {"tested_on": "CCRF-CEM", "assay": "Growth inhibition of Homo sapiens (human) CCRF-CEM cells at 10 uM after 48 hr by coulter counter analysis", "details": "read-out: GI"}, "Escherichia coli": {"tested_on": "Escherichia coli", "assay": "Antibacterial activity against Escherichia coli assessed as growth inhibition after 24 hr by two-fold serial dilution method"}, "SW-620": {"tested_on": "SW-620", "assay": "Growth inhibition of Homo sapiens (human) SW620 cells at 10 uM after 48 hr by coulter counter analysis", "details": "SW-620, 48 h, read-out: GI"}, "SK-MEL-28": {"tested_on": "SK-MEL-28", "assay": "Growth inhibition of Homo sapiens (human) SK-MEL-28 cells at 10 uM after 48 hr by coulter counter analysis", "details": "SK-MEL-28, 48 h, read-out: GI"}, "U-251": {"tested_on": "U-251", "assay": "Growth inhibition of Homo sapiens (human) U251 cells at 10 uM after 48 hr by coulter counter analysis", "details": "U-251, 48 h, read-out: GI"}, "RXF 393": {"tested_on": "RXF 393", "assay": "Growth inhibition of Homo sapiens (human) RXF393 cells at 10 uM after 48 hr by coulter counter analysis", "details": "RXF 393, 48 h, read-out: GI"}, "KM12": {"tested_on": "KM12", "assay": "Growth inhibition of Homo sapiens (human) KM12 cells at 10 uM after 48 hr by coulter counter analysis", "details": "KM12, 48 h, read-out: GI"}, "Hs-578T": {"tested_on": "Hs-578T", "assay": "Growth inhibition of Homo sapiens (human) Hs 578T cells at 10 uM after 48 hr by coulter counter analysis", "details": "read-out: GI"}}, "data": [{"smiles": "O=C1c2nccnc2C(=O)N1c1c(Cl)cc(Cl)cc1Cl", "values": [{"measurement": "inhibition of growth at 10 µM", "setting": "ACHN", "result": -0.27, "unit": "%"}, {"measurement": "inhibition of growth at 10 µM", "setting": "OVCAR-5", "result": -1.7, "unit": "%"}, {"measurement": "inhibition of growth at 10 µM", "setting": "K562", "result": 10.1, "unit": "%"}, {"measurement": "inhibition of growth at 10 µM", "setting": "SNB-19", "result": -2.3, "unit": "%"}, {"measurement": "inhibition of growth at 10 µM", "setting": "NCI-H522", "result": 14.9, "unit": "%"}, {"measurement": "inhibition of growth at 10 µM", "setting": "NCI-H23", "result": 0.61, "unit": "%"}, {"measurement": "inhibition of growth at 10 µM", "setting": "HCT-15", "result": 7.09, "unit": "%"}, {"measurement": "inhibition of growth at 10 µM", "setting": "IGROV-1", "result": 7.24, "unit": "%"}, {"measurement": "inhibition of growth at 10 µM", "setting": "SF-539", "result": 8.66, "unit": "%"}, {"measurement": "-logMIC", "setting": "Staphylococcus aureus", "result": 4.22}, {"measurement": "MIC", "setting": "Staphylococcus aureus; Staphylococcus aureus, 24 h", "result": 20, "unit": "µg/mL"}, {"measurement": "inhibition of growth at 10 µM", "setting": "UACC-62", "result": 1.42, "unit": "%"}, {"measurement": "inhibition of growth at 10 µM", "setting": "RPMI-8226", "result": 4.32, "unit": "%"}, {"measurement": "inhibition of growth at 10 µM", "setting": "Malme-3M", "result": 21.1, "unit": "%"}, {"measurement": "inhibition of growth at 10 µM", "setting": "HT-29", "result": 4.24, "unit": "%"}, {"measurement": "inhibition of growth at 10 µM", "setting": "SK-MEL-5", "result": -6.79, "unit": "%"}, {"measurement": "inhibition of growth at 10 µM", "setting": "T47D", "result": 5.37, "unit": "%"}, {"measurement": "inhibition of growth at 10 µM", "setting": "SN12C", "result": 22.7, "unit": "%"}, {"measurement": "inhibition of growth at 10 µM", "setting": "SK-OV-3", "result": 4.55, "unit": "%"}, {"measurement": "inhibition of growth at 10 µM", "setting": "HL-60(TB)", "result": 1.42, "unit": "%"}, {"measurement": "inhibition of growth at 10 µM", "setting": "M14", "result": 3.32, "unit": "%"}, {"measurement": "inhibition of growth at 10 µM", "setting": "UO-31", "result": 72.9, "unit": "%"}, {"measurement": "inhibition of growth at 10 µM", "setting": "786-0", "result": 2.39, "unit": "%"}, {"measurement": "inhibition of growth at 10 µM", "setting": "MCF7", "result": 3.64, "unit": "%"}, {"measurement": "inhibition of growth at 10 µM", "setting": "SK-MEL-2", "result": -0.16, "unit": "%"}, {"measurement": "inhibition of growth at 10 µM", "setting": "MDA-MB-231", "result": 7.23, "unit": "%"}, {"measurement": "inhibition of growth at 10 µM", "setting": "MOLT-4", "result": 1.21, "unit": "%"}, {"measurement": "inhibition of growth at 10 µM", "setting": "BT-549", "result": 4.48, "unit": "%"}, {"measurement": "inhibition of growth at 10 µM", "setting": "HOP-92", "result": 57.1, "unit": "%"}, {"measurement": "inhibition of growth at 10 µM", "setting": "NCI-H460", "result": -7.91, "unit": "%"}, {"measurement": "inhibition of growth at 10 µM", "setting": "CCRF-CEM", "result": 3.38, "unit": "%"}, {"measurement": "-logMIC", "setting": "Escherichia coli", "result": 4.68}, {"measurement": "MIC", "setting": "Escherichia coli; Escherichia coli, 24 h", "result": 6.9, "unit": "µg/mL"}, {"measurement": "inhibition of growth at 10 µM", "setting": "SW-620", "result": -7.54, "unit": "%"}, {"measurement": "inhibition of growth at 10 µM", "setting": "SK-MEL-28", "result": -3.36, "unit": "%"}, {"measurement": "inhibition of growth at 10 µM", "setting": "U-251", "result": -7.03, "unit": "%"}, {"measurement": "inhibition of growth at 10 µM", "setting": "RXF 393", "result": -25.2, "unit": "%"}, {"measurement": "inhibition of growth at 10 µM", "setting": "KM12", "result": 10.3, "unit": "%"}, {"measurement": "inhibition of growth at 10 µM", "setting": "Hs-578T", "result": 15.3, "unit": "%"}]}]}
